Data on three compounds can be found in patent US10433545B2, “Non-streaking durable composition for cleaning and disinfecting hard surfaces” (Ecolab USA Inc., priority 2016, dated 2019).

One series concerns S. aureus. Nature of the series: OECD method log reduction, S. aureus. Type of series: cell-based, Staphylococcus aureus. To be noted: 400 ppm water; 750 ppm quat. As for the experimental part:
The germicidal test methods referred to are those approved by the EPA for germicide registration in force at the time of the patent application. Staphylococcus aureus is the ATCC 6538 strain.
Formulas with passable or ok glass performance and formulas of interest were then tested for antimicrobial efficacy.
Four log reduction is considered passing for this method.

Another series concerns feline calicivirus. Nature of the series: FCV (feline calicivirus, norovirus surrogate) log reduction. Type of series: cell-based. To be noted: surfactant combined with Bardac 2050 quat. On the procedure:
Variations of this formula were then tested against feline calicivirus, which is norovirus surrogate. Bardac 2050 by itself was the control.
Quat was tested with each surfactant alone to determine which surfactant was interfering. Also, Lonzabac 12 was added to one formula. Streak testing was performed on each formula. FCV (feline calicivirus) testing was done in 400 ppm hard water with a 10 minute contact time and soil.

The conditions of series [1]: list of typical surfactants; CMC measured in water at 20 to 25 degrees C; cited from earlier work.

With `CCCCCCCCCC[N+](C)(C)CCCCCCCCCC.[Cl-]` [Bardac 2250, Didecyldimethylammoniumchloride], in the series with S. aureus, the “OECD log reduction Staph” value is 1.6 log.
`CCCCCCCCCCCC[N+](C)(C)[O-]` [Barlox 12, Lauryldimethyl amine oxide]: the “FCV kill, result in words” value in the series with feline calicivirus is on record as “interferes with FCV kill”.
In the case of `CCCCC(CC)CO[C@H]1O[C@H](CO)[C@@H](O)[C@H](O)[C@H]1O` (stereo partly drawn) [AG 6202, a-D-Glucopyranoside, 2-ethylhexyl], the “CMC (ppm)” value in series [1] is listed as 14000 ppm. Moreover, in the series with feline calicivirus, the “FCV kill, result in words” value is on record as “does not”.
